For assay [1], the target named is Endothelial PAS domain-containing protein 1 (Homo sapiens) (UniProt Q99814). The experiment in a line: potency against HIF reporters across cell lines – luminescence, panel, selectivity assay for HIF-2a inhibitor project, dose response (AID 651581). Conditions: human cell HIF reporter.
For assay [2], the target named is Hypoxia-inducible factor 1-alpha (Homo sapiens) (UniProt Q16665). The assay is described as above. To be noted: human cell HIF reporter, HIF-1a.
Chain of Hypoxia-inducible factor 1-alpha (Homo sapiens) (Q16665 whole entry, looked up): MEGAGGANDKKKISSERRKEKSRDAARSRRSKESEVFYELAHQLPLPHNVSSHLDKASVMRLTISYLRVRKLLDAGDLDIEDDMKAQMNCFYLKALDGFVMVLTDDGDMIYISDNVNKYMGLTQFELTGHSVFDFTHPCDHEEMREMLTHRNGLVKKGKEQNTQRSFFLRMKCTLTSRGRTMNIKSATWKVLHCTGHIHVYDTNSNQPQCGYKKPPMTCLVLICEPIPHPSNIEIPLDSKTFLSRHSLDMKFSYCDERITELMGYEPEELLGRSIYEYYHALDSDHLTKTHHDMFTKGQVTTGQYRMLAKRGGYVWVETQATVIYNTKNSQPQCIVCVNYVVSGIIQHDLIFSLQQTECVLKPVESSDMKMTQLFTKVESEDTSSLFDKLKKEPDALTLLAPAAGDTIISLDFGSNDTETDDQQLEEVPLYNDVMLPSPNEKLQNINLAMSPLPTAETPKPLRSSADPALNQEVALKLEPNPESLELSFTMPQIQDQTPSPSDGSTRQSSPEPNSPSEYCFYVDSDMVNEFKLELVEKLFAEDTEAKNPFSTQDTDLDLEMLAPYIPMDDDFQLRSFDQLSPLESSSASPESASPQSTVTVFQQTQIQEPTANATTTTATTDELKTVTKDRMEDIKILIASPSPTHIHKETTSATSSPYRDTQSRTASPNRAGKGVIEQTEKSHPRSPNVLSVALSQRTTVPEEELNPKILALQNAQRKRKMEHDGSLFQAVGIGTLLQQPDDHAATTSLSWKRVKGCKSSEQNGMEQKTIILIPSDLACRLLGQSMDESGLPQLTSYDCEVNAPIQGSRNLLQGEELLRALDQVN

Among the data in PubChem BioAssay AID651581 (Sanford-Burnham Center for Chemical Genomics, 2012) are IC50 values, retold here.

Calls of active or inactive are those of the source. The rule behind the calls is not given here.

Usually IC50 stands for the concentration at which inhibition is half-maximal. On to `Cc1nn(-c2ccccc2Cl)c(Cl)c1/C=N/Nc1cccc(C(=O)O)c1`, for which the IC50 in assay [1] (HIF-2a PANC, mean of runs) is > 99 µM (inactive); in assay [1] (HIF-2a PANC, run 1), more than 99 µM; in assay [1] (HIF-2a PANC, run 2), more than 99 µM; in assay [1] (HIF-2a, run 1), 23.5 µM; in assay [1] (HIF-2a, run 2) it was 24.2 µM; in assay [2] (run 1) it was more than 99 µM. In addition, the IC50 in assay [2] (run 2) is more than 99 µM. Moreover, the IC50 entry in assay [1] (HIF-2a, mean of runs) was “inactive”.
With `CCOc1ccc(OCc2cccc(C(=O)N/N=C/c3cccnc3)c2)cc1`, the IC50 result in assay [1] (HIF-2a PANC, mean of runs) is “inactive”. The IC50 in assay [1] (HIF-2a PANC, run 1) was 16.7 µM; in assay [1] (HIF-2a PANC, run 2) it was 12 µM; in assay [1] (HIF-2a, mean of runs), 2.03 µM; in assay [1] (HIF-2a, run 1), 2.13 µM; in assay [1] (HIF-2a, run 2), 1.94 µM; in assay [2] (run 1), more than 99 µM. Moreover, the IC50 in assay [2] (run 2) is more than 99 µM.
With `CCOC(=O)c1cccc(NC(=O)Nc2ccc(OCC)cc2)c1`, the IC50 in assay [1] (HIF-2a PANC, run 1) was less than 30 µM; in assay [1] (HIF-2a PANC, run 2) it was 32.7 µM; in assay [1] (HIF-2a, run 1), 11.2 µM; in assay [1] (HIF-2a, run 2), less than 10 µM; in assay [2] (run 1), more than 99 µM; in assay [2] (run 2) it was more than 99 µM.
As to `Cc1nc2cc(-c3ccccc3)nn2c(C)c1CCC(=O)NCc1ccco1`, the IC50 is 4.77 µM in assay [1] (HIF-2a PANC, mean of runs); 6.92 µM in assay [1] (HIF-2a PANC, run 1); 2.62 µM in assay [1] (HIF-2a PANC, run 2); 1.81 µM in assay [1] (HIF-2a, mean of runs); 1.52 µM in assay [1] (HIF-2a, run 1); 2.1 µM in assay [1] (HIF-2a, run 2). Also, the IC50 in assay [2] (run 1) and in assay [2] (run 2) was more than 99 µM in each case.
Regarding `CC(C)(C)c1ccc(/C=N/Nc2ccc(C(=O)O)cc2)cc1`, the IC50 in assay [1] (HIF-2a PANC, mean of runs) was less than 0.3 µM; in assay [1] (HIF-2a PANC, run 1), less than 1 µM; in assay [1] (HIF-2a PANC, run 2), less than 0.3 µM; in assay [1] (HIF-2a, run 1) it was more than 99 µM; in assay [1] (HIF-2a, run 2), less than 0.19 µM; in assay [2] (run 1), 52.5 µM. Besides, the IC50 in assay [2] (run 2) came to 40.5 µM. The IC50 entry in assay [2] (mean of runs) is “inactive”.
For the compound `NCCN1C(=O)S/C(=C\c2ccc3c(c2)OCO3)C1=O`, in assay [1] (HIF-2a PANC, mean of runs), the IC50 result was “inactive”. Moreover, the IC50 in assay [1] (HIF-2a PANC, run 1) was 9.33 µM; in assay [1] (HIF-2a PANC, run 2), 4.41 µM; in assay [1] (HIF-2a, mean of runs), 1.12 µM; in assay [1] (HIF-2a, run 1), 1.15 µM; in assay [1] (HIF-2a, run 2), 1.09 µM; in assay [2] (mean of runs) it was 5.89 µM. In addition, the IC50 in assay [2] (run 1) was found to be 6.19 µM; in assay [2] (run 2) it was 5.6 µM.
As for `O=C1C=CC(=O)N1c1ccccc1N1C(=O)C=CC1=O`, the IC50 in assay [1] (HIF-2a PANC, mean of runs) was > 99 µM (inactive); in assay [1] (HIF-2a PANC, run 1) it was more than 99 µM; in assay [1] (HIF-2a PANC, run 2), more than 99 µM; in assay [1] (HIF-2a, run 1), 13.4 µM; in assay [1] (HIF-2a, run 2), 13.2 µM; in assay [2] (run 1) it was 40.9 µM. In assay [2] (run 2), this compound yielded an IC50 of 34.6 µM. For the same compound, the IC50 result was “inactive” in assay [1] (HIF-2a, mean of runs) and “inactive” in assay [2] (mean of runs).
Take `COc1cccc(C(=O)C(C#N)=C(SC)SC)c1`: in assay [1] (HIF-2a PANC, mean of runs), the IC50 entry was “inactive”. Also, the IC50 in assay [1] (HIF-2a PANC, run 1) is 47.8 µM; in assay [1] (HIF-2a PANC, run 2), 47.4 µM; in assay [1] (HIF-2a, mean of runs), 5.75 µM; in assay [1] (HIF-2a, run 1), 5.91 µM; in assay [1] (HIF-2a, run 2), 5.59 µM; in assay [2] (mean of runs) it was 18.2 µM. Further, the figures for the IC50 in assay [2] (run 1) and in assay [2] (run 2) were 23.4 µM and 13.1 µM, respectively.
Consider `CC(=O)N(C(C)=O)c1ccc(Oc2ccc(Oc3ccc(N(C(C)=O)C(C)=O)cc3)cc2)cc1`, for which the half-maximal inhibitory concentration (IC50) in assay [1] (HIF-2a PANC, mean of runs) is 1.51 µM; in assay [1] (HIF-2a PANC, run 1) it was 1.86 µM; in assay [1] (HIF-2a PANC, run 2) it was 1.15 µM; in assay [1] (HIF-2a, run 1) it was more than 99 µM; in assay [1] (HIF-2a, run 2), 1.58 µM; in assay [2] (run 1), 12.2 µM. The compound further showed an IC50 in assay [2] (run 2) of 20.3 µM. Besides, the IC50 result in assay [2] (mean of runs) was “inactive”.
Regarding `CC(C)(C)c1ccc(-c2noc(CCC(N)=O)n2)cc1`, the IC50 in assay [1] (HIF-2a PANC, mean of runs) is less than 0.3 µM; in assay [1] (HIF-2a PANC, run 1), less than 1 µM; in assay [1] (HIF-2a PANC, run 2), less than 0.3 µM; in assay [1] (HIF-2a, mean of runs) it was less than 0.3 µM; in assay [1] (HIF-2a, run 1) it was less than 0.3 µM; in assay [1] (HIF-2a, run 2), less than 0.3 µM. For the same compound, the IC50 in assay [2] (run 1) and in assay [2] (run 2) was more than 99 µM throughout.
Regarding `COC(=O)c1cccc(NC(=O)NC(=O)c2ccccc2Cl)c1`, the half-maximal inhibitory concentration (IC50) in assay [1] (HIF-2a PANC, run 1) is 17.6 µM; in assay [1] (HIF-2a PANC, run 2) it was more than 99 µM; in assay [1] (HIF-2a, mean of runs) it was 7.56 µM; in assay [1] (HIF-2a, run 1) it was 7.45 µM; in assay [1] (HIF-2a, run 2), 7.66 µM; in assay [2] (run 1) it was more than 99 µM. In assay [2] (run 2), this compound had an IC50 of more than 99 µM.
`O=C(O)c1cc(N/N=C/c2ccc3c(c2)OCCO3)ccc1Cl`: the IC50 in assay [1] (HIF-2a PANC, mean of runs) was > 99 µM (inactive); in assay [1] (HIF-2a PANC, run 1), more than 99 µM; in assay [1] (HIF-2a PANC, run 2), more than 99 µM; in assay [1] (HIF-2a, run 1) it was less than 30 µM; in assay [1] (HIF-2a, run 2), 5.03 µM; in assay [2] (run 1) it was 45.8 µM. For the same compound, the IC50 in assay [2] (run 2) is more than 99 µM.
Turning to `CCOc1ccc(C(=O)Nc2nnc(SCC(=O)NCC3CCCO3)s2)cc1` (stereo not drawn), the IC50 in assay [1] (HIF-2a PANC, mean of runs) is 46.9 µM; in assay [1] (HIF-2a PANC, run 1), 21 µM; in assay [1] (HIF-2a PANC, run 2), 72.7 µM; in assay [1] (HIF-2a, mean of runs), < 30 µM (inactive); in assay [1] (HIF-2a, run 1) it was less than 30 µM; in assay [1] (HIF-2a, run 2) it was less than 30 µM. The IC50 in assay [2] (run 1) and in assay [2] (run 2) was more than 99 µM throughout.
